Values after ≈ are worked out from the molar mass of the structure shown. Read-outs that look alike come from different tables or passages of the source.
How the values were obtained:
[1] = test system: Staphylococcus aureus ATCC 29213, CCM 4223; assay: Antibacterial microdilution broth method, S. aureus; assay type: cell-based
[2] = test system: methicillin-resistant Staphylococcus aureus ATCC 43300, CCM 4750 (MRSA); assay: Antibacterial microdilution broth method, MRSA; assay type: cell-based; conditions: Staphylococcus aureus
[3] = test system: Enterococcus faecalis ATCC 29212, CCM 4224; assay: Antibacterial microdilution broth method, E. faecalis; assay type: cell-based; conditions: Enterococcus faecalis
[4] = test system: Escherichia coli ATCC 25922, CCM 3954; assay: Antibacterial microdilution broth method, E. coli; assay type: cell-based; conditions: Escherichia coli
[5] = test system: Pseudomonas aeruginosa ATCC 27853, CCM 3955; assay: Antibacterial microdilution broth method, P. aeruginosa; assay type: cell-based; conditions: Pseudomonas aeruginosa, P. aeruginosa
[6] = test system: Mycobacterium avium 330/88; assay: Antimycobacterial micromethod in Šula's medium, M. avium; assay type: cell-based
[7] = test system: Mycobacterium kansasii 235/80; assay: Antimycobacterial micromethod in Šula's medium, M. kansasii 235/80; assay type: cell-based
[8] = test system: M. kansasii 6509/96 (clinical isolate); assay: Antimycobacterial micromethod in Šula's medium, M. kansasii 6509/96; assay type: cell-based; conditions: Mycobacterium kansasii
[9] = test system: Candida tropicalis 156; assay: Antifungal microdilution broth method, C. tropicalis; assay type: cell-based
Method in brief: (§1)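 MIC by visual endpoint reading after twofold serial dilution of DMSO-dissolved compounds in RPMI-1640 (L-glutamine, 2% glucose, pH 7.0 with MOPS). Method follows EUCAST instructions, slightly modified; duplicates required agreement within one dilution step.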

[10] = test system: Candida krusei E28; assay: Antifungal microdilution broth method, C. krusei; assay type: cell-based; conditions: Pichia kudriavzevii
Method in brief: as §1

[11] = test system: Candida glabrata 20/I; assay: Antifungal microdilution broth method, C. glabrata; assay type: cell-based; conditions: Nakaseomyces glabratus
Method in brief: as §1

[12] = test system: Trichosporon asahii 1188; assay: Antifungal microdilution broth method, T. asahii; assay type: cell-based
Method in brief: as §1

[13] = test system: Aspergillus fumigatus 231; assay: Antifungal microdilution broth method, A. fumigatus; assay type: cell-based
Method in brief: as §1

[14] = test system: Lichtheimia corymbifera 272; assay: Antifungal microdilution broth method, L. corymbifera; assay type: cell-based
Method in brief: as §1

[15] = test system: HepG2 cells; assay: Cytotoxicity, CellTiter 96 assay; assay type: cell-based, human; conditions: Homo sapiens, HepG2, 24 h, 24 h incubation
Method in brief: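 HepG2 cells (10,000/well) exposed 24 h at 37 °C, 5% CO2 to compounds in DMSO (≤1% v/v final), triplicates. Viability by tetrazolium-to-formazan reduction (CellTiter 96 AQueous One), absorbance 490 nm after 2 h. IC50 from nonlinear regression versus untreated controls; 10% DMSO defined 0% viability.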

[16] = test system: ESBL-positive Klebsiella pneumoniae J 14368/08
[17] = 24 h incubation, read-out: MIC SA 24 h
[18] = 48 h incubation, read-out: MIC SA 48 h
[19] = 24 h incubation, read-out: MIC MRSA 24 h
[20] = 48 h incubation, read-out: MIC MRSA 48 h
[21] = 24 h incubation, read-out: MIC EF 24 h
[22] = 48 h incubation, read-out: MIC EF 48 h
[23] = 24 h incubation, read-out: MIC EC 24 h
[24] = 48 h incubation, read-out: MIC EC 48 h
[25] = 24 h incubation, read-out: MIC PA 24 h
[26] = 48 h incubation, read-out: MIC PA 48 h
[27] = 330/88, 336 h, 14 days incubation at 37 °C, read-out: MIC M. avium 330/88 14 d
[28] = 330/88, 504 h, 21 days incubation at 37 °C, read-out: MIC M. avium 330/88 21 d
[29] = 235/80, 168 h, 7 days incubation at 37 °C, read-out: MIC M. kansasii 235/80 7 d
[30] = 235/80, 336 h, 14 days incubation at 37 °C, read-out: MIC M. kansasii 235/80 14 d
[31] = 235/80, 504 h, 21 days incubation at 37 °C, read-out: MIC M. kansasii 235/80 21 d
[32] = 168 h, 7 days incubation at 37 °C, read-out: MIC M. kansasii 6509/96 7 d
[33] = 336 h, 14 days incubation at 37 °C, read-out: MIC M. kansasii 6509/96 14 d
[34] = 504 h, 21 days incubation at 37 °C, read-out: MIC M. kansasii 6509/96 21 d

Row | Compound | MIC [1, 17] | MIC [1, 18] | MIC [2, 19] | MIC [2, 20] | MIC [3, 21] | MIC [3, 22] | MIC [4, 23] | MIC [4, 24] | MIC [5, 25] | MIC [5, 26] | MIC [6, 27] | MIC [6, 28] | MIC [7, 29] | MIC [7, 30] | MIC [7, 31] | MIC [8, 32] | MIC [8, 33] | MIC [8, 34] | MIC ([9]; 24 h, read-out: MIC CT 24 h) | MIC ([9]; 48 h, read-out: MIC CT 48 h) | also measured
1 | O=C(O)c1ccc(NCc2ccccc2O)cc1 [1u, 4-[(2-Hydroxybenzyl)amino]benzoic acid] | > 500 µM | > 500 µM | > 500 µM | > 500 µM | > 500 µM | > 500 µM | > 500 µM | > 500 µM | > 500 µM | > 500 µM | > 1000 µM | > 1000 µM | 1000 µM (≈ 243 µg/mL) | 1000 µM (≈ 243 µg/mL) | 1000 µM (≈ 243 µg/mL) | 1000 µM (≈ 243 µg/mL) | 1000 µM (≈ 243 µg/mL) | 1000 µM (≈ 243 µg/mL) | > 500 µM | > 500 µM | MIC ([10]; 24 h, read-out: MIC CK 24 h): > 500 µM; MIC ([10]; 48 h, read-out: MIC CK 48 h): > 500 µM; MIC ([11]; 24 h, read-out: MIC CG 24 h): > 500 µM; MIC ([11]; 48 h, read-out: MIC CG 48 h): > 500 µM; MIC ([12]; 24 h, read-out: MIC TA 24 h): > 500 µM; MIC ([12]; 48 h, read-out: MIC TA 48 h): > 500 µM; MIC ([13]; 24 h, read-out: MIC AF 24 h): > 500 µM; MIC ([13]; 48 h, read-out: MIC AF 48 h): > 500 µM; MIC ([14]; 24 h, read-out: MIC LC 24 h): > 500 µM; MIC ([14]; 48 h, read-out: MIC LC 48 h): > 500 µM; IC50 [15]: > 500 µM; MIC KP-E 24 h [16]: >500 µM; MIC KP-E 48 h [16]: >500 µM
2 | O=C(O)c1ccc(N=Cc2cc(Cl)ccc2O)cc1 [1c, 4-[(5-Chloro-2-hydroxybenzylidene)amino]benzoic acid] | > 500 µM | > 500 µM | > 500 µM | > 500 µM | > 500 µM | > 500 µM | > 500 µM | > 500 µM | > 500 µM | > 500 µM | 1000 µM (≈ 276 µg/mL) | > 1000 µM | 250 µM (≈ 68.9 µg/mL) | 250 µM (≈ 68.9 µg/mL) | 500 µM (≈ 138 µg/mL) | 500 µM (≈ 138 µg/mL) | 500 µM (≈ 138 µg/mL) | 1000 µM (≈ 276 µg/mL) | 125 µM (≈ 34.5 µg/mL) | 125 µM (≈ 34.5 µg/mL) | MIC ([10]; 24 h, read-out: MIC CK 24 h): 125 µM (≈ 34.5 µg/mL); MIC ([10]; 48 h, read-out: MIC CK 48 h): 125 µM (≈ 34.5 µg/mL); MIC ([11]; 24 h, read-out: MIC CG 24 h): 125 µM (≈ 34.5 µg/mL); MIC ([11]; 48 h, read-out: MIC CG 48 h): 125 µM (≈ 34.5 µg/mL); MIC ([12]; 24 h, read-out: MIC TA 24 h): > 125 µM; MIC ([12]; 48 h, read-out: MIC TA 48 h): > 125 µM; MIC ([13]; 24 h, read-out: MIC AF 24 h): > 125 µM; MIC ([13]; 48 h, read-out: MIC AF 48 h): > 125 µM; MIC ([14]; 24 h, read-out: MIC LC 24 h): > 125 µM; MIC ([14]; 48 h, read-out: MIC LC 48 h): > 125 µM; IC50 [15]: 143 µM; MIC KP-E 24 h [16]: >500 µM; MIC KP-E 48 h [16]: >500 µM
3 | O=C(O)c1ccc(N=Cc2cc(I)cc(I)c2O)cc1 [1q, 4-[(2-Hydroxy-3,5-diiodobenzylidene)amino]benzoic acid] | 62.5 µM (≈ 30.8 µg/mL) | 62.5 µM (≈ 30.8 µg/mL) | 62.5 µM (≈ 30.8 µg/mL) | 62.5 µM (≈ 30.8 µg/mL) | 500 µM (≈ 247 µg/mL) | 500 µM (≈ 247 µg/mL) | 500 µM (≈ 247 µg/mL) | 500 µM (≈ 247 µg/mL) | > 500 µM | > 500 µM | 500 µM (≈ 247 µg/mL) | 500 µM (≈ 247 µg/mL) | 250 µM (≈ 123 µg/mL) | 500 µM (≈ 247 µg/mL) | 500 µM (≈ 247 µg/mL) | 250 µM (≈ 123 µg/mL) | 250 µM (≈ 123 µg/mL) | 250 µM (≈ 123 µg/mL) | 15.6 µM (≈ 7.7 µg/mL) | 15.6 µM (≈ 7.7 µg/mL) | MIC ([10]; 24 h, read-out: MIC CK 24 h): 31.2 µM (≈ 15.4 µg/mL); MIC ([10]; 48 h, read-out: MIC CK 48 h): 31.2 µM (≈ 15.4 µg/mL); MIC ([11]; 24 h, read-out: MIC CG 24 h): 7.81 µM (≈ 3.85 µg/mL); MIC ([11]; 48 h, read-out: MIC CG 48 h): 7.81 µM (≈ 3.85 µg/mL); MIC ([12]; 24 h, read-out: MIC TA 24 h): 15.6 µM (≈ 7.7 µg/mL); MIC ([12]; 48 h, read-out: MIC TA 48 h): 15.6 µM (≈ 7.7 µg/mL); MIC ([13]; 24 h, read-out: MIC AF 24 h): 125 µM (≈ 61.6 µg/mL); MIC ([13]; 48 h, read-out: MIC AF 48 h): 125 µM (≈ 61.6 µg/mL); MIC ([14]; 24 h, read-out: MIC LC 24 h): 250 µM (≈ 123 µg/mL); MIC ([14]; 48 h, read-out: MIC LC 48 h): 250 µM (≈ 123 µg/mL); IC50 [15]: 57.8 µM; MIC KP-E 24 h [16]: 500 µM (≈ 247 µg/mL); MIC KP-E 48 h [16]: 500 µM (≈ 247 µg/mL)
